Columns and labels:
[1] = test system: Ketol-acid reductoisomerase IlvC; details: reference in the literature; cited from earlier work
[2] = test system: C. autoethanogenum DSM23693; assay: Addition of other known inhibitor to a fermentation optimized for 2,3-Butanediol production; type: cell-based, Clostridium autoethanogenum; details: single addition, 15 mM, stable reactor, day 13.2, FIG. 13
Procedure: Fermentations with C. autoethanogenum DSM23693 were carried out in 1.5 L bioreactors at 37° C. The media was prepared according to Table 1. To achieve anaerobicity the reactor vessel was sparged with nitrogen. Prior to inoculation, the gas was switched to either steel mill gas containing H2 (3%), N2 (30%), CO (47%) and CO2 (20%) or pure gases (50% CO, 18-40% CO2, with the balance N2). The gas flow was initially set at 67 ml/min/L, increasing to 200 ml/min during mid-exponential phase, while the agitation was increased from 200 rpm to 800. Na2S was dosed into the bioreactor at 0.25 ml/hr. Once the OD600 reached 1.5, the bioreactor was switched to a continuous mode at a dilution rate of 2.0-1.6 d-l and a bacterial dilution rate of 0.9-0.6 d-l. During continuous mode gas and agitation were adjusted to 900-950 rpm and 800-900 ml/min. Na2S was increased to 1.0 ml/hr.
Liquid culture samples were taken at differing intervals over the duration of the fermentation. These samples were used to establish the optical density at 600 nm (spectrophotometer) and the level of substrates and products (high performance liquid chromatography—HPLC). HPLC was routinely used to quantify the level of acetate, ethanol and 2,3-butanediol. The input and output gas compositions were analysed using a gas chromatographer (GC), allowing measurement of CO and H2 consumption and CO2 production by the culture. […]

CCC(C)(O)C(=O)O (stereo not drawn) [2-hydroxy-2-methylbutyric acid]
inhibition of ilvC [1]: known inhibitor | ethanol:2,3-BDO ratio [2]: drop | production of 2,3-Butanediol [2]: increase
